The compounds below were run on ECAC2 mRNA in Caco-2 cells.
Format: cell-based
Procedure: The mRNA Expression Assay of ECAC2 in Caco-2 Cells
The dispersed cells were plated in 48-well plate at a concentration of 6.3×10^4 cells/well and incubated for 4 days at 37° C. The culture medium (Dulbecco's Modified Eagle Medium (D-MEM) without NaHCO3 with 44 mM NaHCO3, 1 mM non-essential amino acids, and 2 mM L-glutamine, 90%; fetal bovine serum, 10%) was then replaced with the same medium containing various concentrations of LG190178 (the compound disclosed in WO00/10958 and the corresponding U.S. Pat. No. 6,218,430 B1) or the compounds of the present invention, and cells were cultured for 1 day at 37° C. The culture medium containing the compounds was changed twice per day.
Total RNA Isolation from Caco-2 Cell
Total RNA was isolated from Caco-2 cell following ABI PRISM™ 6100 Nucleic Acid PrepStation protocol from Applied Biosystems.
Real Time RT-PCR Assay of ECAC2
ECAC2 mRNA expression was determined using TaqMan One-step RT-PCR Master Mix Reagents Kit and PRISM7000 systems from Applied Biosystems.
Primer information and cycle conditions are 1)ECAC2, forward 5′-[…]-3′, reverse 5′-GTCCTCTGTCTGGMGATGA-3′, Taqman probe 5′-[…]-3′, 55 cycles, annealing temperature (Ta)=60° C.; 2)GAPDH, forward 5′-GMGGTGMGGTCGGAGTC-3′, reverse 5′-GMGATGGTGATGGGATTTC-3′, Taqman probe 5′-[…]-3′, 55 cycles, Ta=60° C. ECAC2 mRNA values were normalized for the expression of GAPDH mRNA within each sample.
Comparison of ECAC2 mRNA Value
The EC50 values of ECAC2 mRNA values were analyzed by Emax models. The ECAC2 mRNA ratio was calculated as the ratio of the EC50 value of the compounds to that of LG190178. ECAC2 is a channel-like transporter mediating intestinal calcium absorption. It is described in J Biol Chem. Aug. 6, 1999; 274(32):22739-46 for example.

Compound | ECaC-2 mRNA induction activity in Caco-2 cells
CCC(CC)(c1ccc(/C=C/C2(O)CCCCC2)c(C)c1)c1ccc(OC[C@@H](O)CCC(=O)O)c(C)c1 [Example 37, (S)-5-[4-(1-ethyl-1-{4-[(E)-2-(1-hydroxy-cyclohexyl)-vinyl]-3-methyl-phenyl}-propyl)-2-methyl-phenoxy]-4-hydroxy-pentanoic acid] | 639%
CCC(O)(/C=C/c1ccc(C(CC)(CC)c2ccc(OC[C@H]3CCC(=O)O3)c(C)c2)cc1C)CC [Example 44, (R)-5-(4-{1-ethyl-1-[4-((E)-3-ethyl-3-hydroxy-pent-1-enyl)-3-methyl-phenyl]-propyl}-2-methyl-phenoxymethyl)-dihydro-furan-2-one] | 96%
CCC(CC)(c1ccc(/C=C/C(O)(C(F)(F)F)C(F)(F)F)c(C)c1)c1ccc(OC[C@H]2CCC(=O)O2)c(C)c1 [Example 48, (R)-5-(4-{1-ethyl-1-[3-methyl-4-((E)-4,4,4-trifluoro-3-hydroxy-3-trifluoromethyl-but-1-enyl)-phenyl]-propyl}-2-methyl-phenoxymethyl)-dihydro-furan-2-one] | 519%
CCC(CC)(c1ccc(/C=C/C(O)(C(F)(F)F)C(F)(F)F)c(C)c1)c1ccc(OC[C@H](O)CCC(=O)O)c(C)c1 [Example 49, 5-(4-{1-ethyl-1-[3-methyl4-((E)4,4,4-trifluoro-3-hydroxy-3-trifluoromethyl-but-1-enyl)-phenyl]-propyl}-2-methyl-phenoxy)4(R)-hydroxy-pentanoic acid] | 987%
CCC(CC)(c1ccc(/C=C/C(O)(C(F)(F)F)C(F)(F)F)c(C)c1)c1ccc(OC[C@@H](O)CC(=O)O)c(C)c1 [Example 52, (S)4-(4-{1-ethyl-1-[3-methyl-4-((E)A4,4,4-trifluoro-3-hydroxy-3-trifluoromethyl-but-1-enyl)-phenyl]-propyl}-2-methyl-phenoxy)-3-hydroxy-butyric acid] | 1227%
CCC(CC)(c1ccc(/C=C/C(O)(C(F)(F)F)C(F)(F)F)c(C)c1)c1ccc(OC[C@H](O)CC(=O)O)c(C)c1 [Example 54, (R)-4-(4-{1-ethyl-1-[3-methyl4-((E)-4,4,4-trifluoro-3-hydroxy-3-trifluoromethyl-but-1-enyl)-phenyl]-propyl}-2-methyl-phenoxy)-3-hydroxy-butyric acid] | 172%
CCC(CC)(c1ccc(/C=C/C(O)(C(F)(F)F)C(F)(F)F)c(C)c1)c1ccc(OC[C@@H]2CCCC(=O)O2)c(C)c1 [Example 55, (S)-6-(4-{1-ethyl-1-[3-methyl-4-((E)-4,4,4-trifluoro-3-hydroxy-3-trifluoromethyl-but-1-enyl)-phenyl]-propyl}-2-methyl-phenoxymethyl)-tetrahydro-pyran-2-one] | 662%
CCC(CC)(c1ccc(/C=C/C(O)(C(F)(F)F)C(F)(F)F)c(C)c1)c1ccc(OC[C@@H](O)CCCC(=O)O)c(C)c1 [Example 56, (S)-6-(4-{1-Ethyl-1-[3-methyl-4-((E)4,4,4-trifluoro-3-hydroxy-3-trifluoromethyl-but-1-enyl)-phenyl]-propyl}-2-methyl-phenoxy)-5-hydroxy-hexanoic acid] | 276%
CCC(CC)(c1ccc(C#CC(O)(C(F)(F)F)C(F)(F)F)c(C)c1)c1ccc(OC[C@@H]2CCCC(=O)O2)c(C)c1 [Example 57, (S)-6-(4-{1-ethyl-1-[3-methyl4-(4,4,4-trifluoro-3-hydroxy-3-trifluoromethyl-but-1-ynyl)-phenyl]-propyl}-2-methyl-phenoxymethyl)-tetrahydro-pyran-2-one] | 24%
CCC(CC)(c1ccc(C#CC(O)(C(F)(F)F)C(F)(F)F)c(C)c1)c1ccc(OC[C@H]2CCCC(=O)O2)c(C)c1 [Example 59, (R)-6-(4-{1-Ethyl-1-[3-methyl4-(4,4,4-trifluoro-3-hydroxy-3-trifluoromethyl-but-1-ynyl)-phenyl]-propyl}-2-methyl-phenoxymethyl)-tetrahydro-pyran-2-one] | 117%
CCC(CC)(c1ccc(C#CC(O)(C(F)(F)F)C(F)(F)F)c(C)c1)c1ccc(OC[C@H](O)CCCC(=O)O)c(C)c1 [Example 60, (R)-6-(4-{1-ethyl-1-[3-methyl4-(4,4,4-trifluoro-3-hydroxy-3-trifluoromethyl-but-1-ynyl)-phenyl]-propyl}-2-methyl-phenoxy)-5-hydroxy-hexanoic acid] | 235%
CCC(CC)(c1ccc(/C=C/C(O)(C(F)(F)F)C(F)(F)F)c(C)c1)c1ccc(OC[C@H]2CCCC(=O)O2)c(C)c1 [Example 61, (R)-6-(4-{1-ethyl-1-[3-methyl4-((E)4,4,4-trifluoro-3-hydroxy-3-trifluoromethyl-but-1-enyl)-phenyl]-propyl}-2-methyl-phenoxymethyl)-tetrahydro-pyran-2-one] | 918%
CCC(CC)(c1ccc(/C=C/C(O)(C(F)(F)F)C(F)(F)F)c(C)c1)c1ccc(OC[C@H](O)CCCC(=O)O)c(C)c1 [Example 62, (R)-6-(4-{1-Ethyl-1-[3-methyl-4-((E)-4,4,4-trifluoro-3-hydroxy-3-trifluoromethyl-but-1-enyl)-phenyl]-propyl}-2-methyl-phenoxy)-5-hydroxy-hexanoic acid] | 410%
CCC(O)(/C=C/c1ccc(C(CC)(CC)c2ccc(OC[C@@H](O)CO)c(C)c2)cc1C)CC [Example 64, (S)-3-(4-{1-ethyl-1-[4-((E)-3-ethyl-3-hydroxy-pent-1-enyl)-3-methyl-phenyl]-propyl}-2-methyl-phenoxy)-propane-1,2-diol] | 90%
CCC(CC)(c1ccc(C#CC(O)C(C)(C)C)c(C)c1)c1ccc(OC[C@@H](O)CO)c(C)c1 (stereo partly drawn) [Example 66, 3-(4-{1-ethyl-1-[4-(3-hydroxy-4,4-dimethyl-pent-1-ynyl)-3-methyl-phenyl]-propyl}-2-methyl-phenoxy)-propane-1,2(S)-diol] | 126%
CCC(CC)(c1ccc(/C=C/C(O)C(C)(C)C)c(C)c1)c1ccc(OC[C@@H](O)CO)c(C)c1 (stereo partly drawn) [Example 67, 3-(4-{1-ethyl-1-[4-((E)-3-hydroxy-4,4-dimethyl-pent-1-enyl)-3-methyl-phenyl]-propyl}-2-methyl-phenoxy)-propane--1,2(S)-diol] | 860%
CCC(CC)(c1ccc(C#CC(O)(C(F)(F)F)C(F)(F)F)c(C)c1)c1ccc(OC[C@@H](O)CO)c(C)c1 [Example 68, 3-(4-{1-Ethyl-1-[3-methyl4-(4,4,4-trifluoro-3-hydroxy-3-trifluoromethyl-but-1-ynyl)-phenyl]-propyl}-2-methyl-phenoxy)-propane-1,2(S)-diol] | 355%
CCC(CC)(c1ccc(/C=C/C(O)(C(F)(F)F)C(F)(F)F)c(C)c1)c1ccc(OC[C@@H](O)CO)c(C)c1 [Example 69, (S)-3-(4-{1-ethyl-1-[3-methyl-4-((E)-4,4,4-trifluoro-3-hydroxy-3-trifluoromethyl-but-1-enyl)-phenyl]-propyl}-2-methyl-phenoxy)-propane-1,2-diol] | >10000%
CCC(O)(/C=C/c1ccc(C(CC)(CC)c2ccc(OCC(CO)CO)c(C)c2)cc1C)CC [Example 72, 2-(4-{1-Ethyl-1-[4-((E)-3-ethyl-3-hydroxy-pent-1-enyl)-3-methyl-phenyl]-propyl}-2-methyl-phenoxymethyl)-propane-1,3-diol] | 542%
CCC(CC)(c1ccc(/C=C/C(O)C(C)(C)C)c(C)c1)c1ccc(OCC(CO)CO)c(C)c1 (stereo not shown) [Example 75, 2-(4-{1-ethyl-1-[4-((E)-3-hydroxy-4,4-dimethyl-pent-1-enyl)-3-methyl-phenyl]-propyl}-2-methyl-phenoxymethyl)-propane-1,3-diol] | 309%
CCC(CC)(c1ccc(C#CC(O)(C(F)(F)F)C(F)(F)F)c(C)c1)c1ccc(OCC(CO)CO)c(C)c1 [Example 77, 2-(4-{1-ethyl-1-[3-methyl-4-(4,4,4-trifluoro-3-hydroxy-3-trifluoromethyl-but-1-ynyl)-phenyl]-propyl}-2-methyl-phenoxymethyl)-propane-1,3-diol] | 534%
CCC(CC)(c1ccc(/C=C/C(O)(C(F)(F)F)C(F)(F)F)c(C)c1)c1ccc(OCC(CO)CO)c(C)c1 [Example 78, 2-(4-{1-ethyl-1-[3-methyl-4-((E)-4,4,4-trifluoro-3-hydroxy-3-trifluoromethyl-but-1-enyl)-phenyl]-propyl}-2-methyl-phenoxymethyl)-propane-1,3-diol] | 6659%

Reference: patent publication US20060025474A1, “Bisphenyl compounds useful as vitamin D3 receptor agonists” (priority 2004, published 2006)
